Tested on: Escherichia coli ATCC 25922
Assay: Minimum inhibitory concentration (MIC), CLSI broth micro-dilution, E. coli
Format: cell-based
Conditions: Escherichia coli
Summary of the method: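 Antibacterial potency is measured as MIC by the CLSI broth dilution method. Bacteria at OD600 0.0005 in Tween-80-supplemented cation-adjusted Mueller Hinton broth face ten twofold compound dilutions for 22 h at 35° C.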

[1] = ATCC25922, 22 h, Table 7, cation adjusted Mueller Hinton Broth + 0.002% Tween-80, 35° C.
[2] = ATCC25922, 22 h, Table 6, cation adjusted Mueller Hinton Broth + 0.002% Tween-80, 35° C.
[3] = ATCC25922, Table 6, cation adjusted Mueller Hinton Broth + 0.002% Tween-80, 35° C., 22 hours

Compound | MIC [1] | MIC [2] | also measured
Cc1nc(-c2ccc(C(C)(C)C)cc2)nc(C)c1C(=O)N[C@@H](CNS(N)(=O)=O)C(=O)N(C)[C@@H]1C(=O)N[C@@H](C)C(=O)N[C@H](C(=O)NCC#N)Cc2ccc(OCCN)c(c2)-c2cc1cc(OCCNC(=N)N)c2O (racemic) [Compound 590, rac-(8S,11S,14S)-3-(2-aminoethoxy)-N-(cyanomethyl)-17-(2-guanidinoethoxy)-18-hydroxy-11-methyl-14-[methyl-[rac-(2S)-2-[[2-(4-tert-butylphenyl)-4,6-dimethyl-pyrimidine-5-carbonyl]amino]-3-(sulfamoylamino)propanoyl]amino]-10,13-dioxo-9,12-diazatricyclo[13.3.1.12,6]icosa-1(18),2(20),3,5,15(19),16-hexaene-8-carboxamide] | – | – | MIC (ATCC25922, Table 7, cation adjusted Mueller Hinton Broth + 0.002% Tween-80, 35° C., 22 hours): 0.38 µM
Cc1nc(-c2ccc(C(C)(C)C)cc2)nc(C)c1C(=O)N[C@@H](CCN)C(=O)N(C)[C@@H]1C(=O)N[C@@H](C)C(=O)N[C@H](C(=O)NCC#N)Cc2ccc(O)c(c2)-c2cc1ccc2OCCNC(=N)N (racemic) [Compound 595, rac-(8S,11S,14S)-N-(cyanomethyl)-18-(2-guanidinoethoxy)-3-hydroxy-11-methyl-14-[methyl-[rac-(2S)-4-amino-2-[[2-(4-tert-butylphenyl)-4,6-dimethyl-pyrimidine-5-carbonyl]amino]butanoyl]amino]-10,13-dioxo-9,12-diazatricyclo[13.3.1.12,6]icosa-1(18),2(20),3,5,15(19),16-hexaene-8-carboxamide] | 0.33 µM | – | –
Cc1nc(-c2ccc(C(C)(C)C)cc2)cc(N)c1C(=O)N[C@@H](CCN)C(=O)N(C)[C@@H]1C(=O)N[C@@H](C)C(=O)N[C@H](C(=O)NCC#N)Cc2ccc(OCCN)c(c2)-c2cc1ccc2O (racemic) [Compound 557, rac-(8S,11S,14S)-3-(2-aminoethoxy)-N-(cyanomethyl)-18-hydroxy-11-methyl-14-[methyl-[rac-(2S)-4-amino-2-[[4-amino-6-(4-tert-butylphenyl)-2-methyl-pyridine-3-carbonyl]amino]butanoyl]amino]-10,13-dioxo-9,12-diazatricyclo[13.3.1.12,6]icosa-1(18),2(20),3,5,15(19),16-hexaene-8-carboxamide] | – | 0.25 µM | –
Cc1nc(-c2ccc(C(C)(C)C)cc2)nc(C)c1C(=O)N[C@H](COC(C)(C)C)C(=O)N[C@@H](CCN)C(=O)N(C)[C@@H]1C(=O)N[C@@H](C)C(=O)N[C@H](C(=O)NCC#N)Cc2ccc(OCCN)c(c2)-c2cc1ccc2OCCN (racemic) [Compound 468, rac-(8S,11S,14S)-3,18-bis(2-aminoethoxy)-N-(cyanomethyl)-11-methyl-14-[methyl-[rac-(2S)-4-amino-2-[[rac-(2R)-3-tert-butoxy-2-[[2-(4-tert-butylphenyl)-4,6-dimethyl-pyrimidine-5-carbonyl]amino]propanoyl]amino]butanoyl]amino]-10,13-dioxo-9,12-diazatricyclo[13.3.1.12,6]icosa-1(18),2(20),3,5,15(19),16-hexaene-8-carboxamide] | – | – | MIC [3]: 1 µM
CC(=O)Nc1cc(C(=O)N[C@@H](CCN)C(=O)N(C)[C@@H]2C(=O)N[C@@H](C)C(=O)N[C@H](C(=O)NCC#N)Cc3ccc(OCCN)c(c3)-c3cc2ccc3OCCN)c(C)nc1-c1ccc(C(C)(C)C)cc1 (racemic) [Compound 533, rac-(8S,11S,14S)-3,18-bis(2-aminoethoxy)-N-(cyanomethyl)-11-methyl-14-[methyl-[rac-(2S)-2-[[5-acetamido-6-(4-tert-butylphenyl)-2-methyl-pyridine-3-carbonyl]amino]-4-amino-butanoyl]amino]-10,13-dioxo-9,12-diazatricyclo[13.3.1.12,6]icosa-1(18),2(20),3,5,15(19),16-hexaene-8-carboxamide] | – | 1.5 µM | –
Cc1nc(-c2ccc(OCCC(C)(C)C)cc2)cc(N)c1C(=O)N[C@@H](CCN)C(=O)N(C)[C@@H]1C(=O)N[C@@H](C)C(=O)N[C@H](C(=O)NCC#N)Cc2ccc(OCCN)c(c2)-c2cc1ccc2OCCN (racemic) [Compound 538, rac-(8S,11S,14S)-3,18-bis(2-aminoethoxy)-N-(cyanomethyl)-11-methyl-14-[methyl-[rac-(2S)-4-amino-2-[[4-amino-6-[4-(3,3-dimethylbutoxy)phenyl]-2-methyl-pyridine-3-carbonyl]amino]butanoyl]amino]-10,13-dioxo-9,12-diazatricyclo[13.3.1.12,6]icosa-1(18),2(20),3,5,15(19),16-hexaene-8-carboxamide] | – | 0.063 µM | –
Cc1nc(-c2ccc(C(C)(C)C)cc2)nc(C)c1C(=O)N[C@@H](CCN)C(=O)N(C)[C@@H]1C(=O)N[C@@H](C)C(=O)N[C@H](C(=O)NCC#N)Cc2ccc(N)c(c2)-c2cc1ccc2OCCN (racemic) [Compound 624, rac-(8S,11S,14S)-3-amino-18-(2-aminoethoxy)-N-(cyanomethyl)-11-methyl-14-[methyl-[rac-(2S)-4-amino-2-[[2-(4-tert-butylphenyl)-4,6-dimethyl-pyrimidine-5-carbonyl]amino]butanoyl]amino]-10,13-dioxo-9,12-diazatricyclo[13.3.1.12,6]icosa-1(18),2(20),3,5,15(19),16-hexaene-8-carboxamide] | 0.38 µM | – | –
Cc1nc(-c2ccc(OC3CCCCC3)cc2)nc(C)c1C(=O)N[C@@H](CNS(N)(=O)=O)C(=O)N(C)[C@@H]1C(=O)N[C@@H](C)C(=O)N[C@H](C(=O)NCC#N)Cc2ccc(OC[C@H](O)CN)c(c2)-c2cc1ccc2OC[C@H](O)CN (racemic) [Compound 578, rac-(8S,11S,14S)-N-(cyanomethyl)-11-methyl-14-[methyl-[rac-(2S)-2-[[2-[4-(cyclohexoxy)phenyl]-4,6-dimethyl-pyrimidine-5-carbonyl]amino]-3-(sulfamoylamino)propanoyl]amino]-10,13-dioxo-3,18-bis[rac-(2R)-3-amino-2-hydroxy-propoxy]-9,12-diazatricyclo[13.3.1.12,6]icosa-1(18),2(20),3,5,15(19),16-hexaene-8-carboxamide] | 0.19 µM | – | –
Cc1nc(-c2ccc(OCCC(C)(C)C)cc2)nc(C)c1C(=O)N[C@@H](CCN)C(=O)N(C)[C@@H]1C(=O)N[C@@H](C)C(=O)N[C@H](C(=O)NCC#N)Cc2ccc(OCCN)c(c2)-c2cc1ccc2O (racemic) [Compound 528, rac-(8S,11S,14S)-3-(2-aminoethoxy)-N-(cyanomethyl)-18-hydroxy-11-methyl-14-[methyl-[rac-(2S)-4-amino-2-[[2-[4-(3,3-dimethylbutoxy)phenyl]-4,6-dimethyl-pyrimidine-5-carbonyl]amino]butanoyl]amino]-10,13-dioxo-9,12-diazatricyclo[13.3.1.12,6]icosa-1(18),2(20),3,5,15(19),16-hexaene-8-carboxamide] | – | 0.063 µM | –
C[C@@H]1NC(=O)[C@@H](N(C)C(=O)[C@H](CCN)NC(=O)N2CCC(c3ccc(C(C)(C)C)cc3)CC2)c2ccc(OCCN)c(c2)-c2cc(ccc2OCCN)C[C@@H](C(=O)NCC#N)NC1=O (racemic) [Compound 390, rac-(8S,11S,14S)-3,18-bis(2-aminoethoxy)-N-(cyanomethyl)-11-methyl-14-[methyl-[rac-(2S)-4-amino-2-[[4-(4-tert-butylphenyl)piperidine-1-carbonyl]amino]butanoyl]amino]-10,13-dioxo-9,12-diazatricyclo[13.3.1.12,6]icosa-1(18),2(20),3,5,15(19),16-hexaene-8-carboxamide] | – | – | MIC [3]: 8 µM
